The results in this text go back to PubChem BioAssay AID224 (DTP/NCI, 2004).

Where “and” joins values, the source holds several entries; their conditions need not be identical. Equal values may be shown once. Toxic doses and inconclusive results are not listed.

The assay deals with P335 leukemia ip, BDF1 mice, survival T/C %. Kind of assay: NCI In Vivo Anticancer Drug Screen. Data for tumor model P335 Leukemia (intraperitoneal) in B6D2F1 (BDF1) mice. Conditions: endpoint: mean survival time, higher = longer survival. Here is the method: The antitumor activity of compounds was measured in mice bearing transplantable tumors. Survival or tumor size were measured and the results are expressed as the measurement made in the treated group (T) divided by the measurement made in the vehicle treated control group (C). The tumor model used in this assay is P335 Leukemia (intraperitoneal) in B6D2F1 (BDF1) mice

Setting [1] is: dose: 6.25 mg/kg/injection, schedule: Q01DX Z (ip), vehicle: saline.
[2] abbreviates: dose: 25.0 mg/kg/injection, schedule: Q01DX Z (ip), vehicle: carboxymethylcellulose (CMC).
[3] abbreviates: dose: 50.0 mg/kg/injection, schedule: Q01DX Z (ip), vehicle: carboxymethylcellulose (CMC).
The mark [4] stands for this setting: dose: 100.0 mg/kg/injection, schedule: Q01DX Z (ip), vehicle: carboxymethylcellulose (CMC).
[5] abbreviates: dose: 0.25 mg/kg/injection, schedule: Q01DX Z (ip), vehicle: carboxymethylcellulose (CMC).

Take `Oc1cc(CN(CCCl)CCCl)c(O)cc1CN(CCCl)CCCl`: the T/C is, setting by setting: (dose: 0.24 mg/kg/injection, schedule: Q01DX Z (sc), vehicle: steriod suspending solution) 95 % of control; (dose: 0.47 mg/kg/injection, schedule: Q01DX Z (sc), vehicle: steriod suspending solution) 109 % of control; (dose: 0.94 mg/kg/injection, schedule: Q01DX Z (sc), vehicle: steriod suspending solution) 103 % of control; (dose: 1.87 mg/kg/injection, schedule: Q01DX Z (sc), vehicle: steriod suspending solution) 104 % of control; (dose: 7.5 mg/kg/injection, schedule: Q01DX Z (sc), vehicle: steriod suspending solution) 87 % of control.

Consider `O=C(Nc1ccc(C2=NCCCN2)cc1)c1ccc(C(=O)Nc2ccc(C3=NCCCN3)cc2)cc1`, for which the T/C reads like this: (dose: 0.4 mg/kg/injection, schedule: Q01DX Z (ip), vehicle: water) 98 % of control; (dose: 1.6 mg/kg/injection, schedule: Q01DX Z (ip), vehicle: water) 154 % of control; (dose: 3.1 mg/kg/injection, schedule: Q01DX Z (ip), vehicle: water) 207 % of control.

For the molecule `CN(N=O)C(=O)NC(C=O)C(O)C(O)C(O)CO` (stereo not given), the T/C was 96 % of control under setting [1]; 112 % of control (dose: 12.5 mg/kg/injection, schedule: Q01DX Z (ip), vehicle: saline); 113 % of control (dose: 25.0 mg/kg/injection, schedule: Q01DX Z (ip), vehicle: saline); 151 % of control (dose: 100.0 mg/kg/injection, schedule: Q01DX Z (ip), vehicle: saline).

With `O=C(Nc1ccc(C2=NCCN2)cc1)c1ccc(C(=O)Nc2ccc(C3=NCCN3)cc2)cc1`, the T/C reads like this: under setting [2], 112 % of control; under setting [3], 93 % of control; under setting [4], 112 % of control; (dose: 200.0 mg/kg/injection, schedule: Q01DX Z (ip), vehicle: carboxymethylcellulose (CMC)) 179 % of control.

Take `CCN(CC)CCNc1ccc(C)c2sc3ccccc3c(=O)c12`: the T/C reads like this: (dose: 0.78 mg/kg/injection, schedule: Q01DX Z (ip), vehicle: methylcellulose (MC)) 89 % of control; (dose: 6.25 mg/kg/injection, schedule: Q01DX Z (ip), vehicle: methylcellulose (MC)) 92 % of control; (dose: 50.0 mg/kg/injection, schedule: Q01DX Z (ip), vehicle: methylcellulose (MC)) 89 % of control; (dose: 100.0 mg/kg/injection, schedule: Q01DX Z (ip), vehicle: methylcellulose (MC)) 93 % of control.

On to `C[N+](C)(C)c1ncnc2nc[nH]c12`, for which the T/C is, setting by setting: (dose: 12.5 mg/kg/injection, schedule: Q01DX Z (ip), vehicle: carboxymethylcellulose (CMC)) 107 % of control; under setting [2], 94 % of control; under setting [3], 110 % of control; under setting [4], 87 % of control and 107 % of control.

On to `CCCNc1ncnc2[nH]ncc12`, for which the T/C reads like this: (dose: 0.62 mg/kg/injection, schedule: Q01DX Z (ip), vehicle: water) 95 % of control; (dose: 5.0 mg/kg/injection, schedule: Q01DX Z (ip), vehicle: water) 94 % of control.

With `NC(=O)c1cn(C2OC(CO)C(O)C2O)c2ncnc(N)c12` (stereo not given), the T/C runs as follows: under setting [5], 101 % of control; (dose: 0.5 mg/kg/injection, schedule: Q01DX Z (ip), vehicle: carboxymethylcellulose (CMC)) 86 % of control; (dose: 16.0 micrograms/kg/injection, schedule: Q01DX Z (ip), vehicle: carboxymethylcellulose (CMC)) 110 % of control; (dose: 31.0 micrograms/kg/injection, schedule: Q01DX Z (ip), vehicle: carboxymethylcellulose (CMC)) 104 % of control; (dose: 63.0 micrograms/kg/injection, schedule: Q01DX Z (ip), vehicle: carboxymethylcellulose (CMC)) 105 % of control.

`O=c1cnn(C2OC(CO)C(O)C2O)c(=O)[nH]1` (stereo not given): the T/C is, setting by setting: (dose: 0.98 mg/kg/injection, schedule: Q01DX Z (ip), vehicle: water) 102 % of control; (dose: 1.0 mg/kg/injection, schedule: Q01DX Z (ip), vehicle: water) 95 % of control; (dose: 1.95 mg/kg/injection, schedule: Q01DX Z (ip), vehicle: water) 115 % of control; (dose: 2.0 mg/kg/injection, schedule: Q01DX Z (ip), vehicle: water) 98 % of control; (dose: 3.9 mg/kg/injection, schedule: Q01DX Z (ip), vehicle: water) 105 % of control; (dose: 7.8 mg/kg/injection, schedule: Q01DX Z (ip), vehicle: water) 112 % of control. Besides, the T/C was 93 % of control (dose: 8.0 mg/kg/injection, schedule: Q01DX Z (ip), vehicle: water); 152 % of control (dose: 15.6 mg/kg/injection, schedule: Q01DX Z (ip), vehicle: water); 101 % of control (dose: 250.0 mg/kg/injection, schedule: Q01DX Z (ip), vehicle: water); 104 % of control (dose: 500.0 mg/kg/injection, schedule: Q01DX Z (ip), vehicle: water); 112 % of control (dose: 1000.0 mg/kg/injection, schedule: Q01DX Z (ip), vehicle: water).

Regarding `O=c1[nH]c(=O)n(C2CC(O)C(CO)O2)cc1Br` (stereo not given), the T/C is, setting by setting: (dose: 250.0 mg/kg/injection, schedule: Q01DX Z (ip), vehicle: carboxymethylcellulose (CMC)) 112 % of control; (dose: 500.0 mg/kg/injection, schedule: Q01DX Z (ip), vehicle: carboxymethylcellulose (CMC)) 115 % of control; (dose: 1000.0 mg/kg/injection, schedule: Q01DX Z (ip), vehicle: carboxymethylcellulose (CMC)) 94 % of control and 121 % of control.

In the case of `N[C@@H](Cc1ccc(N(CCCl)CCCl)cc1)C(=O)O`, the T/C (dose: 1.25 mg/kg/injection, schedule: Q01DX Z (ip), vehicle: saline) is 168 % of control; the T/C (dose: 2.5 mg/kg/injection, schedule: Q01DX Z (ip), vehicle: saline) is 169 % of control and 195 % of control; the T/C (dose: 5.0 mg/kg/injection, schedule: Q01DX Z (ip), vehicle: saline) was 106 % of control.

As to `NC(Cc1ccc(N(CCCl)CCCl)cc1)C(=O)O` (stereo not given), the T/C is, setting by setting: (dose: 2.5 mg/kg/injection, schedule: Q01DX Z (ip), vehicle: carboxymethylcellulose (CMC)) 87 % of control; (dose: 5.0 mg/kg/injection, schedule: Q01DX Z (ip), vehicle: carboxymethylcellulose (CMC)) 94 % of control.

Take `Clc1ccc(C(c2ccccc2Cl)C(Cl)Cl)cc1` (stereo not given): the T/C is 96 % of control (dose: 12.5 mg/kg/injection, schedule: Q01DX Z (sc), vehicle: steriod suspending solution); 96 % of control (dose: 25.0 mg/kg/injection, schedule: Q01DX Z (sc), vehicle: steriod suspending solution); 97 % of control (dose: 50.0 mg/kg/injection, schedule: Q01DX Z (sc), vehicle: steriod suspending solution); 92 % of control (dose: 100.0 mg/kg/injection, schedule: Q01DX Z (sc), vehicle: steriod suspending solution).

`O=C(Nc1ccc(C2=NCCCN2)cc1)c1ccc(NC(=O)c2ccc(C3=NCCCN3)cc2)cc1`: the T/C reads like this: (dose: 4.0 mg/kg/injection, schedule: Q01DX Z (ip), vehicle: carboxymethylcellulose (CMC)) 168 % of control; (dose: 8.0 mg/kg/injection, schedule: Q01DX Z (ip), vehicle: carboxymethylcellulose (CMC)) 176 % of control; (dose: 16.0 mg/kg/injection, schedule: Q01DX Z (ip), vehicle: carboxymethylcellulose (CMC)) 108 % of control.

As for `CC(=O)N(C)C`, the T/C was 95 % of control (dose: 250.0 mg/kg/injection, schedule: Q01DX Z (ip), vehicle: saline); 110 % of control (dose: 500.0 mg/kg/injection, schedule: Q01DX Z (ip), vehicle: saline); 92 % of control (dose: 1000.0 mg/kg/injection, schedule: Q01DX Z (ip), vehicle: saline); 90 % of control (dose: 2000.0 mg/kg/injection, schedule: Q01DX Z (ip), vehicle: saline).

Turning to `O=P1(N(CCCl)CCCl)NCCCO1` (stereo not given), the T/C by setting is: under setting [1], 113 % of control; (dose: 200.0 mg/kg/injection, schedule: Q01DX Z (ip), vehicle: saline) 107 % of control.

On to `CN(Cc1cnc2nc(N)nc(N)c2n1)c1c(Cl)cc(C(=O)NC(CCC(=O)O)C(=O)O)cc1Cl` (stereo not given), for which the T/C under setting [2] is 104 % of control and 121 % of control.

As for `Nc1nc2n[nH]nc2c(=O)[nH]1`, for the setting “dose: 100.0 mg/kg/injection, schedule: Q01DX Z (ip), vehicle: other”, the T/C was 115 % of control.

With `Cn1cnc([N+](=O)[O-])c1Sc1nc(N)nc2nc[nH]c12`, under setting [5], the T/C is 93 % of control.

Regarding `O=NN(CCCl)C(=O)NCCCl`, the T/C (dose: 16.0 mg/kg/injection, schedule: Q01DX Z (ip), vehicle: saline) is 95 % of control.

`C[C@]12CCC(=O)C=C1CC[C@@H]1[C@@H]2C(=O)C[C@@]2(C)[C@H]1CC[C@]2(O)C(=O)CO`: the T/C reads like this: (dose: 3.9 mg/kg/injection, schedule: Q01DX Z (sc), vehicle: steriod suspending solution) 111 % of control; (dose: 31.25 mg/kg/injection, schedule: Q01DX Z (sc), vehicle: steriod suspending solution) 101 % of control; (dose: 250.0 mg/kg/injection, schedule: Q01DX Z (sc), vehicle: steriod suspending solution) 94 % of control.
